Data reported in PMC5906549, “Cathelicidin-Derived Antimicrobial Peptides Inhibit Zika Virus Through Direct Inactivation and Interferon Pathway” (Frontiers in Immunology, 2018).
Peptide text beside a SMILES is read from it.

Key:
[1] = system: ZIKV strain MR766; assay: Extracellular ZIKV RNA in supernatants of infected human fetal astrocytes (real-time RT-PCR); type: cell-based, Zika virus; conditions: ZIKV MOI 0.5, 48 h, cell-free supernatants
Experimental: Total mRNA was isolated with TRIzol Reagent (Thermo Fisher Scientific) and RNeasy Mini Kit (QIAGEN Inc., Valencia, CA, USA) following the manufacturer’s recommendations. Two real-time RT-PCR methods were used for the current studies. First, SYBR Green-based RT-PCR assay was used to determine intracellular ZIKV RNA in Vero cells. For this assay, reverse transcription was performed using Verso cDNA synthesis Kit (Thermo Fisher Scientific) and 1 µg of total RNA in a 15-µL final volume. The RT-PCR analyses were performed using 7.5-µL SYBR Green PCR Master Mix (Thermo Fisher Scientific) with 0.5-µL cDNA, 1.5-µL H2O, 5.5-µL oligonucleotide primer pairs at 10 µM. […] GG-3. PCR program: 1, 50°C for 2 min; 2, 95°C for 2 min; 3, 95°C for 15 s; 4, specific annealing temperature for 15 s; 5, 72°C for 1 min. Steps 2–4 were repeated 40 times. All samples were amplified in triplicate for analysis. Relative ZIKV RNA levels were determined and standardized with a GAPDH internal control using comparative ΔΔCT method ([35]). Second, TaqMan-based RT-PCR assay was used to determine intracellular ZIKV RNA and other gene expressions in Figures 3–6 and extracellular ZIKV RNA in Figure 3. The TaqMan assay was performed in a StepOne^TM Real-Time PCR system (Thermo Fisher Scientific). Primers used for TaqMan real-time RT-PCR were all from the Thermo Fisher Scientific, which included ZIKV (forward sequence: 5-[…]-3, reverse sequence: 5- […]-3, and probe sequence: 5′-[…]-3), IFN-α2 (Hs00265051_s1), IFN-β1 (Hs01077958_s1), eukaryotic 18-s rRNA (Hs99999901_s1), β-actin (Hs99999903_m1), and GAPDH (Catalog number: 4310884E). Relative ZIKV mRNA levels were determined and standardized with a GAPDH or 18-s rRNA endogenous control using comparative ΔΔCT method ([35]). […] Quantitative genomic RNA from ZIKV (NR-1838DQ, ATCC) was used as a standard to calculate viral copies.
(A) Human fetal astrocytes were treated with doses of the selected peptides ranging from 1 to 50 µM. […] Cell viability was determined by a colorimetric MTS assay. […] Data were analyzed by nonlinear regression and assessed the EC50 for each of the antimicrobial peptides. […] At the experimental endpoint, intracellular ZIKV RNA (B) was determined through real-time RT-PCR in total cellular RNA. […] Extracellular ZIKV RNA [(C), in log scale] was determined through real-time RT-PCR using total RNA isolated from cell-free supernatants. ZIKV virion levels (in log scale) were determined by adding cell-free culture supernatants to Vero cells and overlaid with Agar gel in viral PFA (D). Viral plaques were manually counted and calculated as PFU/mL (E). * p < 0.05, ** p < 0.01, and *** p < 0.001, as compared with the ZIKV group without peptide treatment (ANOVA, N = 3).

[2] = system: ZIKV strain MR766; assay: ZIKV virion levels in astrocyte supernatants, plaque-forming assay on Vero cells; type: cell-based, Zika virus; conditions: human fetal astrocytes; peptide 0.4 to 10 µM pre-treatment; supernatants titrated on Vero cells
Experimental: (A) Human fetal astrocytes were treated with doses of the selected peptides ranging from 1 to 50 µM. After 24 h, the cultures were washed and treated with same doses of peptides in fresh medium for another 24 h. Cell viability was determined by a colorimetric MTS assay. Results shown are the averages ±SD of experiments performed in triplicate. Data were analyzed by nonlinear regression and assessed the EC50 for each of the antimicrobial peptides. (B–E) Astrocytes were treated with doses of antimicrobial peptides ranging from 0.4 to 10 µM for 2 h then infected with ZIKV at the MOI of 0.5. After 24 h, the cultures were washed and treated with same doses of antimicrobial peptides in fresh medium for another 24 h. At the experimental endpoint, intracellular ZIKV RNA (B) was determined through real-time RT-PCR in total cellular RNA. Data were normalized to GAPDH and presented as fold change (in log scale) compared with ZIKV group. Extracellular ZIKV RNA [(C), in log scale] was determined through real-time RT-PCR using total RNA isolated from cell-free supernatants. ZIKV virion levels (in log scale) were determined by adding cell-free culture supernatants to Vero cells and overlaid with Agar gel in viral PFA (D). Viral plaques were manually counted and calculated as PFU/mL (E). * p < 0.05, ** p < 0.01, and *** p < 0.001, as compared with the ZIKV group without peptide treatment (ANOVA, N = 3).

Compound	Extracellular ZIKV RNA in culture supernatants, reduced to % of untreated ([1]; peptide 2 µM)	Extracellular ZIKV RNA in culture supernatants, reduced to % of untreated ([1]; peptide 10 µM)	ZIKV virions (PFU/mL) in supernatants [2]
CC[C@H](C)[C@H](NC(=O)[C@H](CCCCN)NC(=O)[C@H](CCCCN)NC(=O)[C@H](Cc1ccccc1)NC(=O)[C@H](CC(C)C)NC(=O)[C@H](CCCCN)NC(=O)[C@H](CCCCN)NC(=O)[C@H](Cc1ccccc1)NC(=O)[C@H](CCCCN)NC(=O)[C@H](CCCCN)NC(=O)[C@H](CCCNC(=N)N)NC(=O)[C@H](Cc1ccccc1)NC(=O)[C@H](CCCNC(=N)N)NC(=O)[C@H](CCCCN)NC(=O)[C@H](Cc1ccccc1)NC(=O)[C@H](CCCNC(=N)N)NC(=O)CN)C(=O)N[C@@H](CO)C(=O)O [BMAP-18] (H-GRFKRFRKKFKKLFKKIS-OH; N-terminus and C-terminus assumed)	5.6%	1.3%	ZIKV virions were reduced
CC[C@H](C)[C@H](NC(=O)[C@H](CCCNC(=N)N)NC(=O)[C@H](CCC(N)=O)NC(=O)[C@@H](NC(=O)[C@@H](NC(=O)[C@H](CCCNC(=N)N)NC(=O)[C@H](CCCCN)NC(=O)[C@H](Cc1ccccc1)NC(=O)CN)[C@@H](C)CC)C(C)C)C(=O)N[C@@H](CCCCN)C(=O)N[C@@H](CC(=O)O)C(=O)N[C@@H](Cc1ccccc1)C(=O)N[C@@H](CC(C)C)C(=O)N[C@@H](CCCNC(=N)N)C(=O)N[C@@H](CC(N)=O)C(=O)N[C@@H](CC(C)C)C(=O)N[C@H](C(N)=O)C(C)C [GF-17] (H-GFKRIVQRIKDFLRNLV-NH2; N-terminus and C-terminus assumed)	16.7%	0.1%	ZIKV virions were reduced
